± gives the expanded uncertainty stated by the source.
Test: activity coefficient (dimensionless); of the first substance listed, at infinite dilution; xn = mol fraction of the nth substance listed
Settings: 101 kPa, Liquid, Chromatography, x1 = 0

Row | SMILES | activity coefficient (328.15 K) | activity coefficient (338.15 K) | activity coefficient (348.15 K) | activity coefficient (358.15 K) | activity coefficient (368.15 K) | activity coefficient (308.15 K) | activity coefficient (318.15 K)
1 | Cc1ccccc1C [1,2-dimethylbenzene] + CCCC[n+]1cccc(C)c1.N#C[N-]C#N | 2.47 ± 0.17 | 2.51 ± 0.17 | 2.58 ± 0.18 | 2.64 ± 0.18 | 2.71 ± 0.18 |  | 
2 | Cc1cccc(C)c1 [1,3-dimethylbenzene] + CCCC[n+]1cccc(C)c1.N#C[N-]C#N | 3.01 ± 0.2 | 3.06 ± 0.21 | 3.14 ± 0.21 | 3.2 ± 0.22 | 3.28 ± 0.22 |  | 
3 | Cc1ccc(C)cc1 [1,4-dimethylbenzene] + CCCC[n+]1cccc(C)c1.N#C[N-]C#N | 2.86 ± 0.19 | 2.92 ± 0.2 | 3.02 ± 0.21 | 3.08 ± 0.21 | 3.17 ± 0.22 |  | 
4 | C1COCCO1 [1,4-dioxane] + CCCC[n+]1cccc(C)c1.N#C[N-]C#N |  | 1.01 ± 0.06 | 1.05 ± 0.07 | 1.08 ± 0.07 | 1.11 ± 0.07 |  | 
5 | C=CCCCCCCCC [1-decene] + CCCC[n+]1cccc(C)c1.N#C[N-]C#N | 93.8 ± 6.4 | 88.4 ± 6.1 | 83.2 ± 5.7 | 78.1 ± 5.4 | 73.9 ± 5.1 | 109 ± 7 | 101 ± 7
6 | C=CCCCCC [1-heptene] + CCCC[n+]1cccc(C)c1.N#C[N-]C#N | 29.7 ± 2 | 28.3 ± 1.9 | 27 ± 1.8 | 25.9 ± 1.8 | 24.8 ± 1.7 | 33.1 ± 2.3 | 31.2 ± 2.1
7 | C#CCCCCC [1-heptyne] + CCCC[n+]1cccc(C)c1.N#C[N-]C#N | 6.38 ± 0.43 | 6.48 ± 0.44 | 6.58 ± 0.45 | 6.67 ± 0.45 | 6.78 ± 0.46 | 6.16 ± 0.42 | 6.27 ± 0.43
8 | C#CCCCC [1-hexyne] + CCCC[n+]1cccc(C)c1.N#C[N-]C#N | 4.35 ± 0.3 | 4.45 ± 0.3 | 4.55 ± 0.31 | 4.62 ± 0.31 | 4.72 ± 0.32 | 4.13 ± 0.28 | 4.25 ± 0.29
9 | CCC[N+](=O)[O-] [1-nitropropane] + CCCC[n+]1cccc(C)c1.N#C[N-]C#N |  | 1.13 ± 0.07 | 1.14 ± 0.07 | 1.15 ± 0.07 | 1.15 ± 0.07 |  | 
10 | C#CCCCCCC [1-octyne] + CCCC[n+]1cccc(C)c1.N#C[N-]C#N | 9.42 ± 0.64 | 9.52 ± 0.65 | 9.6 ± 0.65 | 9.68 ± 0.66 | 9.75 ± 0.67 | 9.22 ± 0.63 | 9.32 ± 0.64
11 | C=CCCC [1-pentene] + CCCC[n+]1cccc(C)c1.N#C[N-]C#N | 14.1 ± 1 | 13.7 ± 0.9 | 13.1 ± 0.9 | 12.6 ± 0.9 | 12.2 ± 0.8 | 15.3 ± 1 | 14.7 ± 1
12 | C#CCCC [1-pentyne] + CCCC[n+]1cccc(C)c1.N#C[N-]C#N | 3.05 ± 0.21 | 3.14 ± 0.21 | 3.21 ± 0.22 | 3.28 ± 0.22 | 3.35 ± 0.23 | 2.9 ± 0.2 | 2.97 ± 0.2
13 | CC(C)CC(C)(C)C [2,2,4-trimethylpentane] + CCCC[n+]1cccc(C)c1.N#C[N-]C#N | 85.8 ± 5.9 | 78.3 ± 5.4 | 72.6 ± 5 | 67 ± 4.6 | 61.7 ± 4.2 | 104 ± 7 | 93.3 ± 6.4
14 | CCC(C)(C)C [2,2-dimethylbutane] + CCCC[n+]1cccc(C)c1.N#C[N-]C#N | 47.4 ± 3.2 | 42.9 ± 2.9 | 39.4 ± 2.7 | 36.4 ± 2.5 | 33.6 ± 2.3 | 57.3 ± 3.9 | 52 ± 3.6
15 | CCOC(C)(C)C [2-ethoxy-2-methylpropane] + CCCC[n+]1cccc(C)c1.N#C[N-]C#N | 17 ± 1.2 | 16.7 ± 1.1 | 16.3 ± 1.1 | 15.9 ± 1.1 | 15.6 ± 1.1 | 18 ± 1.2 | 17.5 ± 1.2
16 | CCCCC(C)=O [2-hexanone] + CCCC[n+]1cccc(C)c1.N#C[N-]C#N | 2.44 ± 0.17 | 2.48 ± 0.17 | 2.54 ± 0.17 | 2.59 ± 0.18 | 2.63 ± 0.18 |  | 
17 | CCC(C)(C)OC [2-methoxy-2-methylbutane] + CCCC[n+]1cccc(C)c1.N#C[N-]C#N | 9.59 ± 0.65 | 9.51 ± 0.65 | 9.44 ± 0.64 | 9.35 ± 0.64 | 9.27 ± 0.63 | 9.8 ± 0.67 | 9.71 ± 0.66
18 | COC(C)(C)C [2-methoxy-2-methylpropane] + CCCC[n+]1cccc(C)c1.N#C[N-]C#N | 6.78 ± 0.46 | 6.78 ± 0.46 | 6.79 ± 0.46 | 6.8 ± 0.46 | 6.8 ± 0.46 | 6.76 ± 0.46 | 6.77 ± 0.46

Row | SMILES | activity coefficient (328.15 K) | activity coefficient (338.15 K) | activity coefficient (348.15 K) | activity coefficient (358.15 K) | activity coefficient (368.15 K) | activity coefficient (308.15 K) | activity coefficient (318.15 K)
19 | CCCC(=O)CC [3-hexanone] + CCCC[n+]1cccc(C)c1.N#C[N-]C#N |  | 2.77 ± 0.19 | 2.82 ± 0.19 | 2.87 ± 0.2 | 2.89 ± 0.2 |  | 
20 | CCC(C)CC [3-methylpentane] + CCCC[n+]1cccc(C)c1.N#C[N-]C#N | 43.1 ± 3 | 39.8 ± 2.7 | 36.9 ± 2.5 | 34.7 ± 2.4 | 32.4 ± 2.2 | 50.9 ± 3.5 | 47 ± 3.2
21 | C=C(C)c1ccccc1 [(1-methylethenyl)benzene] + CCCC[n+]1cccc(C)c1.N#C[N-]C#N | 2.1 ± 0.14 | 2.21 ± 0.15 | 2.33 ± 0.16 | 2.44 ± 0.17 | 2.55 ± 0.17 |  | 
22 | CC(C)=O [acetone] + CCCC[n+]1cccc(C)c1.N#C[N-]C#N | 0.946 ± 0.06 | 0.968 ± 0.061 | 0.999 ± 0.062 | 1.03 ± 0.06 | 1.04 ± 0.07 |  | 
23 | CC#N [acetonitrile] + CCCC[n+]1cccc(C)c1.N#C[N-]C#N |  | 0.736 ± 0.049 | 0.748 ± 0.049 | 0.76 ± 0.05 | 0.764 ± 0.05 |  | 
24 | c1ccccc1 [benzene] + CCCC[n+]1cccc(C)c1.N#C[N-]C#N | 1.37 ± 0.09 | 1.4 ± 0.09 | 1.43 ± 0.09 | 1.47 ± 0.1 | 1.5 ± 0.1 |  | 
25 | CCCCO [butan-1-ol] + CCCC[n+]1cccc(C)c1.N#C[N-]C#N |  | 0.88 ± 0.056 | 0.855 ± 0.055 | 0.84 ± 0.054 | 0.814 ± 0.053 |  | 
26 | C1CCCCCC1 [cycloheptane] + CCCC[n+]1cccc(C)c1.N#C[N-]C#N | 23.6 ± 1.6 | 22.1 ± 1.5 | 20.7 ± 1.4 | 19.5 ± 1.3 | 18.5 ± 1.3 | 27.3 ± 1.9 | 25.2 ± 1.7
27 | C1CCCCC1 [cyclohexane] + CCCC[n+]1cccc(C)c1.N#C[N-]C#N | 19.8 ± 1.4 | 18.5 ± 1.3 | 17.4 ± 1.2 | 16.5 ± 1.1 | 15.6 ± 1.1 | 23 ± 1.6 | 21.2 ± 1.4
28 | O=C1CCCCC1 [cyclohexanone] + CCCC[n+]1cccc(C)c1.N#C[N-]C#N |  | 0.928 ± 0.059 | 0.96 ± 0.06 | 0.988 ± 0.062 | 1.01 ± 0.06 |  | 
29 | C1=CCCCC1 [cyclohexene] + CCCC[n+]1cccc(C)c1.N#C[N-]C#N | 8.55 ± 0.58 | 8.27 ± 0.56 | 7.99 ± 0.54 | 7.76 ± 0.53 | 7.54 ± 0.51 | 9.2 ± 0.63 | 8.87 ± 0.61
30 | C1CCCCCCC1 [cyclooctane] + CCCC[n+]1cccc(C)c1.N#C[N-]C#N | 29.7 ± 2 | 27.8 ± 1.9 | 25.8 ± 1.8 | 24.2 ± 1.7 | 22.7 ± 1.6 | 35.1 ± 2.4 | 32 ± 2.2
31 | C1CCCC1 [cyclopentane] + CCCC[n+]1cccc(C)c1.N#C[N-]C#N | 13.4 ± 0.9 | 12.6 ± 0.9 | 11.9 ± 0.8 | 11.3 ± 0.8 | 10.9 ± 0.7 | 15.1 ± 1 | 14.2 ± 1
32 | CCCCCCCCCC [decane] + CCCC[n+]1cccc(C)c1.N#C[N-]C#N | 219 ± 15 | 198 ± 14 | 179 ± 12 | 163 ± 11 | 149 ± 10 | 275 ± 19 | 244 ± 17
33 | CCOCC [diethyl ether] + CCCC[n+]1cccc(C)c1.N#C[N-]C#N | 6.29 ± 0.43 | 6.26 ± 0.43 | 6.22 ± 0.42 | 6.19 ± 0.42 | 6.15 ± 0.42 | 6.37 ± 0.43 | 6.33 ± 0.43
34 | CCCOCCC [dipropyl ether] + CCCC[n+]1cccc(C)c1.N#C[N-]C#N | 17.2 ± 1.2 | 16.6 ± 1.1 | 16.3 ± 1.1 | 15.6 ± 1.1 | 15.2 ± 1 | 18.3 ± 1.3 | 17.7 ± 1.2
35 | CCO [ethanol] + CCCC[n+]1cccc(C)c1.N#C[N-]C#N |  | 0.549 ± 0.04 | 0.545 ± 0.04 | 0.541 ± 0.04 | 0.537 ± 0.039 |  | 
36 | CCc1ccccc1 [ethylbenzene] + CCCC[n+]1cccc(C)c1.N#C[N-]C#N | 3.21 ± 0.22 | 3.26 ± 0.22 | 3.32 ± 0.23 | 3.35 ± 0.23 | 3.41 ± 0.23 |  | 

Source: the NIST ThermoML archive (doi:10.1016/j.jct.2013.09.007)
